Results from US20230085307A1, “PYRIDAZINONE COMPOUND AND HERBICIDE” (NISSAN CHEMICAL CORPORATION, priority 2019, published 2023).

Legend:
windgrass [1] = assay: Test Example 4: herbicidal effect by soil treatment (Table 19, symbol L); assay type: in vivo, windgrass (Apera spica-venti); settings: amount of applied herbicide 320 g/ha
Outline: (§1)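 Scoring uses the grading scale of an earlier test, three weeks post-application. Treatment consists of spraying a diluted emulsion formulation across the surface of sterilized diluvial soil in which seeds are buried near 1.5 cm deep; boxes are kept in a greenhouse between 25° C. and 30° C.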

Chinese sprangletop = assay: Test Example 3: herbicidal effect by foliage application, Wagner pot (Table 18, symbol D); assay type: in vivo, chinese sprangletop (Leptochloa chinensis); settings: 320 g/ha
Outline: (§2)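 Plants were sown in alluvial soil held under 0.1–0.5 cm standing water and grown 14 days in a greenhouse at 25–30 °C. An emulsifiable formulation, water-diluted to the set dose, was then sprayed onto the foliage, and effects were scored three weeks later using previously defined criteria.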

redroot pigweed [2] = assay: Test Example 4: herbicidal effect by soil treatment (Table 19, symbol N); assay type: in vivo, redroot pigweed (Amaranthus retroflexus); settings: amount of applied herbicide 320 g/ha
Outline: as §1

southern crabgrass [3] = assay: Test Example 4: herbicidal effect by soil treatment (Table 19, symbol F); assay type: in vivo, southern crabgrass (Digitaria ciliaris); settings: amount of applied herbicide 320 g/ha
Outline: as §1

Japanese bulrush = assay: Test Example 2: herbicidal activity, application during weed generation under submerged conditions (Table 17, symbol B); assay type: in vivo, Japanese bulrush (Schoenoplectus juncoides); settings: AAH 320 g/ha; application during weed generation, submerged conditions
Outline: (§3)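 Alluvial soil in Wagner pots was flooded to 4 cm depth and sown with the three weeds together; pots were kept in a greenhouse at 25° C. to 30° C. At the one to two leaf stage, an emulsion formulation diluted in water to a set rate went onto the water surface; scored three weeks later.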

late watergrass = assay: Test Example 2: herbicidal activity, application during weed generation under submerged conditions (Table 17, symbol A); assay type: in vivo, late watergrass (Echinochloa oryzicola); settings: AAH 320 g/ha; application during weed generation, submerged conditions
Outline: as §3

southern crabgrass [4] = assay: Test Example 5: herbicidal effect by foliage application, plastic box (Table 20, symbol F); assay type: in vivo, southern crabgrass (Digitaria ciliaris); settings: amount of applied herbicide 320 g/ha; foliage application after 14-day growth; evaluated three weeks after application
Outline: (§4)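 Post-emergence foliar test in sterilized diluvial soil. Compound applied as water-diluted emulsion at a predetermined rate to 14-day-old plants; evaluation at three weeks.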

blackgrass [5] = assay: Test Example 5: herbicidal effect by foliage application, plastic box (Table 20, symbol J); assay type: in vivo, blackgrass (Alopecurus myosuroides); settings: amount of applied herbicide 320 g/ha; foliage application after 14-day growth; evaluated three weeks after application
Outline: as §4

barnyard grass [6] = assay: Test Example 4: herbicidal effect by soil treatment (Table 19, symbol H); assay type: in vivo, barnyard grass (Echinochloa crus-galli); settings: amount of applied herbicide 320 g/ha
Outline: as §1

lambsquarters [7] = assay: Test Example 5: herbicidal effect by foliage application, plastic box (Table 20, symbol O); assay type: in vivo, lambsquarters (Chenopodium album); settings: amount of applied herbicide 320 g/ha; foliage application after 14-day growth; evaluated three weeks after application
Outline: as §4

chickweed [8] = assay: Test Example 4: herbicidal effect by soil treatment (Table 19, symbol P); assay type: in vivo, common chickweed (Stellaria media); settings: amount of applied herbicide 320 g/ha
Outline: as §1

chickweed [9] = assay: Test Example 5: herbicidal effect by foliage application, plastic box (Table 20, symbol P); assay type: in vivo, common chickweed (Stellaria media); settings: amount of applied herbicide 320 g/ha; foliage application after 14-day growth; evaluated three weeks after application
Outline: as §4

Italian ryegrass [10] = assay: Test Example 5: herbicidal effect by foliage application, plastic box (Table 20, symbol K); assay type: in vivo, Italian ryegrass (Lolium multiflorum); settings: amount of applied herbicide 320 g/ha; foliage application after 14-day growth; evaluated three weeks after application
Outline: as §4

velvetleaf [11] = assay: Test Example 4: herbicidal effect by soil treatment (Table 19, symbol M); assay type: in vivo, velvetleaf (Abutilon theophrasti); settings: amount of applied herbicide 320 g/ha
Outline: as §1

lambsquarters [12] = assay: Test Example 4: herbicidal effect by soil treatment (Table 19, symbol O); assay type: in vivo, lambsquarters (Chenopodium album); settings: amount of applied herbicide 320 g/ha
Outline: as §1

blackgrass [13] = assay: Test Example 4: herbicidal effect by soil treatment (Table 19, symbol J); assay type: in vivo, blackgrass (Alopecurus myosuroides); settings: amount of applied herbicide 320 g/ha
Outline: as §1

persian speedwell [14] = assay: Test Example 5: herbicidal effect by foliage application, plastic box (Table 20, symbol R); assay type: in vivo, Persian speedwell (Veronica persica); settings: amount of applied herbicide 320 g/ha; foliage application after 14-day growth; evaluated three weeks after application
Outline: as §4

velvetleaf [15] = assay: Test Example 5: herbicidal effect by foliage application, plastic box (Table 20, symbol M); assay type: in vivo, velvetleaf (Abutilon theophrasti); settings: amount of applied herbicide 320 g/ha; foliage application after 14-day growth; evaluated three weeks after application
Outline: as §4

barnyard grass [16] = assay: Test Example 3: herbicidal effect by foliage application, Wagner pot (Table 18, symbol H); assay type: in vivo, barnyard grass (Echinochloa crus-galli); settings: 320 g/ha
Outline: as §2

windgrass [17] = assay: Test Example 5: herbicidal effect by foliage application, plastic box (Table 20, symbol L); assay type: in vivo, windgrass (Apera spica-venti); settings: amount of applied herbicide 320 g/ha; foliage application after 14-day growth; evaluated three weeks after application
Outline: as §4

oval-leafed pondweed = assay: Test Example 2: herbicidal activity, application during weed generation under submerged conditions (Table 17, symbol C); assay type: in vivo, oval-leafed pondweed (Monochoria vaginalis); settings: AAH 320 g/ha; application during weed generation, submerged conditions
Outline: as §3

wild oat [18] = assay: Test Example 4: herbicidal effect by soil treatment (Table 19, symbol I); assay type: in vivo, wild oat (Avena fatua); settings: amount of applied herbicide 320 g/ha
Outline: as §1

green foxtail [19] = assay: Test Example 4: herbicidal effect by soil treatment (Table 19, symbol G); assay type: in vivo, green foxtail (Setaria viridis); settings: amount of applied herbicide 320 g/ha
Outline: as §1

persian speedwell [20] = assay: Test Example 4: herbicidal effect by soil treatment (Table 19, symbol R); assay type: in vivo, Persian speedwell (Veronica persica); settings: amount of applied herbicide 320 g/ha
Outline: as §1

green foxtail [21] = assay: Test Example 5: herbicidal effect by foliage application, plastic box (Table 20, symbol G); assay type: in vivo, green foxtail (Setaria viridis); settings: amount of applied herbicide 320 g/ha; foliage application after 14-day growth; evaluated three weeks after application
Outline: as §4

barnyard grass [22] = assay: Test Example 5: herbicidal effect by foliage application, plastic box (Table 20, symbol H); assay type: in vivo, barnyard grass (Echinochloa crus-galli); settings: amount of applied herbicide 320 g/ha; foliage application after 14-day growth; evaluated three weeks after application
Outline: as §4

Italian ryegrass [23] = assay: Test Example 4: herbicidal effect by soil treatment (Table 19, symbol K); assay type: in vivo, Italian ryegrass (Lolium multiflorum); settings: amount of applied herbicide 320 g/ha
Outline: as §1

redroot pigweed [24] = assay: Test Example 5: herbicidal effect by foliage application, plastic box (Table 20, symbol N); assay type: in vivo, redroot pigweed (Amaranthus retroflexus); settings: amount of applied herbicide 320 g/ha; foliage application after 14-day growth; evaluated three weeks after application
Outline: as §4

rice flat sedge = assay: Test Example 3: herbicidal effect by foliage application, Wagner pot (Table 18, symbol E); assay type: in vivo, rice flat sedge (Cyperus iria); settings: 320 g/ha
Outline: as §2

wild oat [25] = assay: Test Example 5: herbicidal effect by foliage application, plastic box (Table 20, symbol I); assay type: in vivo, wild oat (Avena fatua); settings: amount of applied herbicide 320 g/ha; foliage application after 14-day growth; evaluated three weeks after application
Outline: as §4

## Cc1nn(C)c(=O)c(-c2c(-c3ccccc3OC(F)F)sc3cc(F)c(F)cc23)c1O [5-021]
Windgrass [1]
  L: windgrass, herbicidal effect grade: 4 (Herbicidal rate of 70% or more and less than 90%)
Chinese sprangletop
  herbicidal effect on Chinese sprangletop (D): 3 (Herbicidal rate of 40% or more and less than 70%)
Redroot pigweed [2]
  N: redroot pigweed, herbicidal effect grade: 4 (Herbicidal rate of 70% or more and less than 90%)
Southern crabgrass [3]
  F: southern crabgrass, herbicidal effect grade: 5 (Herbicidal rate of 90% or more (almost completely withered))
Japanese bulrush
  herbicidal effect rating, B: Japanese bulrush: 2 (Herbicidal rate of 20% or more and less than 40%)
Late watergrass
  herbicidal effect rating, A: late watergrass: 0 (Herbicidal rate of 5% or less (almost no effect))
Southern crabgrass [4]
  Herbicidal effect by foliage application, F: southern crabgrass: 5 (Herbicidal rate of 90% or more (almost completely withered))
Blackgrass [5]
  Herbicidal effect by foliage application, J: blackgrass: 4 (Herbicidal rate of 70% or more and less than 90%)
Barnyard grass [6]
  H: barnyard grass, herbicidal effect grade: 4 (Herbicidal rate of 70% or more and less than 90%)
Lambsquarters [7]
  Herbicidal effect by foliage application, O: lambsquarters: 3 (Herbicidal rate of 40% or more and less than 70%)
Chickweed [8]
  P: chickweed, herbicidal effect grade: 2 (Herbicidal rate of 20% or more and less than 40%)
Chickweed [9]
  Herbicidal effect by foliage application, P: chickweed: 5 (Herbicidal rate of 90% or more (almost completely withered))
Italian ryegrass [10]
  Herbicidal effect by foliage application, K: Italian ryegrass: 4 (Herbicidal rate of 70% or more and less than 90%)
Velvetleaf [11]
  M: velvetleaf, herbicidal effect grade: 4 (Herbicidal rate of 70% or more and less than 90%)
Lambsquarters [12]
  O: lambsquarters, herbicidal effect grade: 3 (Herbicidal rate of 40% or more and less than 70%)
Blackgrass [13]
  J: blackgrass, herbicidal effect grade: 0 (Herbicidal rate of 5% or less (almost no effect))
Persian speedwell [14]
  Herbicidal effect by foliage application, R: persian speedwell: 5 (Herbicidal rate of 90% or more (almost completely withered))
Velvetleaf [15]
  Herbicidal effect by foliage application, M: velvetleaf: 5 (Herbicidal rate of 90% or more (almost completely withered))
Barnyard grass [16]
  herbicidal effect on barnyard grass (H): 4 (Herbicidal rate of 70% or more and less than 90%)
Windgrass [17]
  Herbicidal effect by foliage application, L: windgrass: 5 (Herbicidal rate of 90% or more (almost completely withered))
oval-leafed pondweed
  herbicidal effect rating, C: oval-leafed pondweed: 0 (Herbicidal rate of 5% or less (almost no effect))
Wild oat [18]
  I: wild oat, herbicidal effect grade: 0 (Herbicidal rate of 5% or less (almost no effect))
Green foxtail [19]
  G: green foxtail, herbicidal effect grade: 5 (Herbicidal rate of 90% or more (almost completely withered))
Persian speedwell [20]
  R: persian speedwell, herbicidal effect grade: 5 (Herbicidal rate of 90% or more (almost completely withered))
Green foxtail [21]
  Herbicidal effect by foliage application, G: green foxtail: 5 (Herbicidal rate of 90% or more (almost completely withered))
Barnyard grass [22]
  Herbicidal effect by foliage application, H: barnyard grass: 4 (Herbicidal rate of 70% or more and less than 90%)
Italian ryegrass [23]
  K: Italian ryegrass, herbicidal effect grade: 0 (Herbicidal rate of 5% or less (almost no effect))
Redroot pigweed [24]
  Herbicidal effect by foliage application, N: redroot pigweed: 4 (Herbicidal rate of 70% or more and less than 90%)
Rice flat sedge
  herbicidal effect on rice flat sedge (E): 5 (Herbicidal rate of 90% or more (almost completely withered))
Wild oat [25]
  Herbicidal effect by foliage application, I: wild oat: 2 (Herbicidal rate of 20% or more and less than 40%)
